In ChEMBL document CHEMBL1141017, “Triterpene based compounds with potent anti-maturation activity against HIV-1” (Bioorg Med Chem Lett, 2008):

How the values were obtained:
[1] = tested on: Human immunodeficiency virus 1; assay: Antiviral activity against HIV1 3B replication in human PBMC assessed as reverse transcriptase activity after 7 days; type: functional, organism-based; conditions: Human immunodeficiency virus 1, 3B, 168 h
[2] = Cytotoxicity against human PBMC by cell viability assay; type: cell-based; conditions: read-out: TC50 (the source's name)
[3] = Cytotoxicity against human MT4 cells after 4 days by cell viability assay; type: cell-based; conditions: read-out: TC50
[4] = tested on: Human immunodeficiency virus 1; assay: Antiviral activity against HIV1 NL4-3 infected in human MT4 cells assessed as cytoprotection against virus-induced cytopathic effect after 4 days by cell viability assay; type: functional, organism-based; conditions: Human immunodeficiency virus 1, NL4-3, MT4, 96 h
[5] = Therapeutic index, ratio of TC50 for human MT4 cells to EC50 for HIV1 NL43; type: cell-based
[6] = Therapeutic index, ratio of TC50 for human MT4 cells to IC50 for HIV1 3B; type: cell-based
[7] = Metabolic stability in human liver microsomes assessed as compound remaining after 40 mins; type: ADME, Microsome; conditions: read-out: Stability
[8] = Metabolic stability in Sprague-Dawley rat liver microsomes assessed as compound remaining after 40 mins; type: ADME, Microsome; conditions: read-out: Stability

| SMILES | IC50 [1] [nM] | CC50 [2] [nM] | CC50 at 96 h [3] [nM] | EC50 [4] [nM] | selectivity ratio [5] | selectivity ratio [6] | remaining at 40 min [7] [%] | remaining at 40 min [8] [%] |
| --- | --- | --- | --- | --- | --- | --- | --- | --- |
| C=C(C)[C@@H]1CC[C@]2(C(=O)NCc3nc4ccccc4s3)CC[C@]3(C)[C@H](CC[C@@H]4[C@@]5(C)CC[C@H](OC(=O)CC(C)(C)C(=O)O)C(C)(C)[C@@H]5CC[C@]43C)[C@@H]12 | 3 | > 10000 | 6800 | 33 | – | – | – | – |
| C=C(C)[C@@H]1CC[C@]2(C(=O)NCc3nc4ccccc4[nH]3)CC[C@]3(C)[C@H](CC[C@@H]4[C@@]5(C)CC[C@H](OC(=O)CC(C)(C)C(=O)O)C(C)(C)[C@@H]5CC[C@]43C)[C@@H]12 | 1 | > 10000 | 8600 | 5 | – | – | – | – |
| C=C(C)[C@@H]1CC[C@]2(C(=O)N[C@H](C(=O)O)c3ccc(OC)cc3)CC[C@]3(C)[C@H](CC[C@@H]4[C@@]5(C)CC[C@H](OC(=O)CC(C)(C)C(=O)O)C(C)(C)[C@@H]5CC[C@]43C)[C@@H]12 | – | – | 6800 | 40 | – | – | – | – |
| C=C(C)[C@@H]1CC[C@]2(C(=O)NCc3ccccc3C(=O)NCCNC(C)=O)CC[C@]3(C)[C@H](CC[C@@H]4[C@@]5(C)CC[C@H](OC(=O)CC(C)(C)C(=O)O)C(C)(C)[C@@H]5CC[C@]43C)[C@@H]12 | – | – | 9300 | 5 | > 400 | > 400 | – | – |
| C=C(C)[C@@H]1CC[C@]2(C(=O)N[C@H]3CCCc4ccccc43)CC[C@]3(C)[C@H](CC[C@@H]4[C@@]5(C)CC[C@H](OC(=O)CC(C)(C)C(=O)O)C(C)(C)[C@@H]5CC[C@]43C)[C@@H]12 | – | – | > 10000 | 180 | – | – | – | – |
| C=C(C)[C@@H]1CC[C@]2(C(=O)NCc3ccc(-c4ccccc4)cc3)CC[C@]3(C)[C@H](CC[C@@H]4[C@@]5(C)CC[C@H](OC(=O)CC(C)(C)C(=O)O)C(C)(C)[C@@H]5CC[C@]43C)[C@@H]12 | – | – | > 10000 | 267 | > 400 | > 400 | 10 | – |
| C=C(C)[C@@H]1CC[C@]2(C(=O)N3Cc4ccccc4C3)CC[C@]3(C)[C@H](CC[C@@H]4[C@@]5(C)CC[C@H](OC(=O)CC(C)(C)C(=O)O)C(C)(C)[C@@H]5CC[C@]43C)[C@@H]12 | – | – | > 10000 | 70 | – | – | – | – |
| C=C(C)[C@@H]1CC[C@]2(C(=O)NCc3ccc(OC)cc3)CC[C@]3(C)[C@H](CC[C@@H]4[C@@]5(C)CC[C@H](OC(=O)CC(C)(C)C(=O)O)C(C)(C)[C@@H]5CC[C@]43C)[C@@H]12 | 23.5 | > 10000 | > 10000 | 26 | > 400 | > 400 | 10 | 10 |
| C=C(C)[C@@H]1CC[C@]2(C(=O)NCc3ccc(C(=O)NCCNC(C)=O)cc3)CC[C@]3(C)[C@H](CC[C@@H]4[C@@]5(C)CC[C@H](OC(=O)CC(C)(C)C(=O)O)C(C)(C)[C@@H]5CC[C@]43C)[C@@H]12 | – | – | 10000 | 30 | > 400 | > 400 | – | – |
| C=C(C)[C@@H]1CC[C@]2(C(=O)NCCCc3ccc(OC)cc3)CC[C@]3(C)[C@H](CC[C@@H]4[C@@]5(C)CC[C@H](OC(=O)CC(C)(C)C(=O)O)C(C)(C)[C@@H]5CC[C@]43C)[C@@H]12 | – | – | 10000 | 80 | – | – | – | – |
| C=C(C)[C@@H]1CC[C@]2(C(=O)NCc3cccc(C(=O)O)c3)CC[C@]3(C)[C@H](CC[C@@H]4[C@@]5(C)CC[C@H](OC(=O)CC(C)(C)C(=O)O)C(C)(C)[C@@H]5CC[C@]43C)[C@@H]12 | – | – | 7600 | 480 | > 400 | > 400 | 10 | 10 |
| C=C(C)[C@@H]1CC[C@]2(C(=O)NCCc3cccc(OC)c3)CC[C@]3(C)[C@H](CC[C@@H]4[C@@]5(C)CC[C@H](OC(=O)CC(C)(C)C(=O)O)C(C)(C)[C@@H]5CC[C@]43C)[C@@H]12 | – | – | > 10000 | 40 | – | – | – | – |
| C=C(C)[C@@H]1CC[C@]2(C(=O)NCCc3ccc(C(=O)O)cc3)CC[C@]3(C)[C@H](CC[C@@H]4[C@@]5(C)CC[C@H](OC(=O)CC(C)(C)C(=O)O)C(C)(C)[C@@H]5CC[C@]43C)[C@@H]12 | – | – | 1000 | 1000 | – | – | – | – |
| C=C(C)[C@@H]1CC[C@]2(C(=O)NCc3ccc(C(=O)O)cn3)CC[C@]3(C)[C@H](CC[C@@H]4[C@@]5(C)CC[C@H](OC(=O)CC(C)(C)C(=O)O)C(C)(C)[C@@H]5CC[C@]43C)[C@@H]12 | – | – | > 10000 | 1700 | – | – | – | – |
| C=C(C)[C@@H]1CC[C@]2(C(=O)NCc3ccc4ccccc4n3)CC[C@]3(C)[C@H](CC[C@@H]4[C@@]5(C)CC[C@H](OC(=O)CC(C)(C)C(=O)O)C(C)(C)[C@@H]5CC[C@]43C)[C@@H]12 | – | – | > 10000 | 26 | – | – | – | – |
| C=C(C)[C@@H]1CC[C@]2(C(=O)NCc3cccc(C(=O)NCCNC(C)=O)c3)CC[C@]3(C)[C@H](CC[C@@H]4[C@@]5(C)CC[C@H](OC(=O)CC(C)(C)C(=O)O)C(C)(C)[C@@H]5CC[C@]43C)[C@@H]12 | – | – | 10000 | 10 | > 400 | > 400 | – | 10 |
| C=C(C)[C@@H]1CC[C@]2(C(=O)N[C@@H](Cc3ccc(OC)cc3)C(=O)O)CC[C@]3(C)[C@H](CC[C@@H]4[C@@]5(C)CC[C@H](OC(=O)CC(C)(C)C(=O)O)C(C)(C)[C@@H]5CC[C@]43C)[C@@H]12 | – | – | 5600 | 9 | – | – | – | – |
| C=C(C)[C@@H]1CC[C@]2(C(=O)NCCCc3ccc(OC)c(OC)c3)CC[C@]3(C)[C@H](CC[C@@H]4[C@@]5(C)CC[C@H](OC(=O)CC(C)(C)C(=O)O)C(C)(C)[C@@H]5CC[C@]43C)[C@@H]12 | – | – | 10000 | 20 | – | – | – | – |
| C=C(C)[C@@H]1CC[C@]2(C(=O)NCc3cccnc3C(=O)O)CC[C@]3(C)[C@H](CC[C@@H]4[C@@]5(C)CC[C@H](OC(=O)CC(C)(C)C(=O)O)C(C)(C)[C@@H]5CC[C@]43C)[C@@H]12 | 30 | > 10000 | > 10000 | 24 | – | – | – | – |
| C=C(C)[C@@H]1CC[C@]2(C(=O)N[C@H]3CCc4ccccc43)CC[C@]3(C)[C@H](CC[C@@H]4[C@@]5(C)CC[C@H](OC(=O)CC(C)(C)C(=O)O)C(C)(C)[C@@H]5CC[C@]43C)[C@@H]12 | – | – | > 10000 | 200 | – | – | – | – |
| C=C(C)[C@@H]1CC[C@]2(C(=O)NCc3ccc(C(=O)O)cc3)CC[C@]3(C)[C@H](CC[C@@H]4[C@@]5(C)CC[C@H](OC(=O)CC(C)(C)C(=O)O)C(C)(C)[C@@H]5CC[C@]43C)[C@@H]12 | – | – | 8900 | 165 | > 400 | > 400 | 10 | 10 |
| C=C(C)[C@@H]1CC[C@]2(C(=O)NCc3ccoc3)CC[C@]3(C)[C@H](CC[C@@H]4[C@@]5(C)CC[C@H](OC(=O)CC(C)(C)C(=O)O)C(C)(C)[C@@H]5CC[C@]43C)[C@@H]12 | 7 | > 10000 | > 10000 | 7 | – | – | – | – |
| C=C(C)[C@@H]1CC[C@]2(C(=O)NCc3ccccc3)CC[C@]3(C)[C@H](CC[C@@H]4[C@@]5(C)CC[C@H](OC(=O)CC(C)(C)C(=O)O)C(C)(C)[C@@H]5CC[C@]43C)[C@@H]12 | 11 | > 10000 | > 10000 | 23 | > 400 | > 400 | – | 10 |
| C=C(C)[C@@H]1CC[C@]2(C(=O)NCc3ncccc3C(=O)O)CC[C@]3(C)[C@H](CC[C@@H]4[C@@]5(C)CC[C@H](OC(=O)CC(C)(C)C(=O)O)C(C)(C)[C@@H]5CC[C@]43C)[C@@H]12 | – | – | > 10000 | 129 | – | – | – | – |
| C=C(C)[C@@H]1CC[C@]2(C(=O)NCc3ccccc3C)CC[C@]3(C)[C@H](CC[C@@H]4[C@@]5(C)CC[C@H](OC(=O)CC(C)(C)C(=O)O)C(C)(C)[C@@H]5CC[C@]43C)[C@@H]12 | – | – | > 10000 | 85 | > 400 | > 400 | 10 | – |
| C=C(C)[C@@H]1CC[C@]2(C(=O)NCc3ccc(N(C)C)cc3)CC[C@]3(C)[C@H](CC[C@@H]4[C@@]5(C)CC[C@H](OC(=O)CC(C)(C)C(=O)O)C(C)(C)[C@@H]5CC[C@]43C)[C@@H]12 | – | – | 1000 | 30 | > 400 | > 400 | 10 | 10 |
| C=C(C)[C@@H]1CC[C@]2(C(=O)NCc3ccccc3-c3ccccc3)CC[C@]3(C)[C@H](CC[C@@H]4[C@@]5(C)CC[C@H](OC(=O)CC(C)(C)C(=O)O)C(C)(C)[C@@H]5CC[C@]43C)[C@@H]12 | – | – | > 10000 | 290 | > 400 | > 400 | – | – |
| C=C(C)[C@@H]1CC[C@]2(C(=O)NCc3ccc4cccc(O)c4n3)CC[C@]3(C)[C@H](CC[C@@H]4[C@@]5(C)CC[C@H](OC(=O)CC(C)(C)C(=O)O)C(C)(C)[C@@H]5CC[C@]43C)[C@@H]12 | 4 | > 10000 | > 10000 | 3 | – | – | > 40 | > 40 |
